According to patent US9440957B2, “Compounds and compositions for modulating EGFR Activity” (Novartis AG, priority 2012, dated 2016):
pIC50: −log10 of the molar value. Where two headings read alike, the source gives them in different places.

Experiments:
EGFR(L858R/T790M) = target: T1, EGFR(L858R/T790M) (Homo sapiens, UniProt P00533, L858R/T790M); test: EGFR biochemical assay (HTRF), IC50 determinations
T1 construct: purchased from Carna (GST-a.a. 669-1210)
Summary of the method: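 HTRF kinase reaction with biotin-TK peptide at room temperature, quenched with EDTA at 60 min and detected with PT66K/SAXL after 1 h. Without preincubation, enzyme starts the reaction with compound, ATP and peptide present. With preincubation, compound, enzyme and peptide sit at room temperature for a set time before ATP is added.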

[1] = target: human EGFR WT (NIH/3T3 cells, EGF-induced) (Homo sapiens, UniProt P00533); test: EGFR target modulation in engineered NIH/3T3 cell lines (phospho-EGFR Y1068 AlphaLISA), EGFR WT; assay type: cell-based; conditions: engineered NIH/3T3 cells, read-out: NIH3T3 IC50 (μM) EGFR (WT)
Sequence of human EGFR WT (NIH/3T3 cells, EGF-induced) (P00533 25-1210): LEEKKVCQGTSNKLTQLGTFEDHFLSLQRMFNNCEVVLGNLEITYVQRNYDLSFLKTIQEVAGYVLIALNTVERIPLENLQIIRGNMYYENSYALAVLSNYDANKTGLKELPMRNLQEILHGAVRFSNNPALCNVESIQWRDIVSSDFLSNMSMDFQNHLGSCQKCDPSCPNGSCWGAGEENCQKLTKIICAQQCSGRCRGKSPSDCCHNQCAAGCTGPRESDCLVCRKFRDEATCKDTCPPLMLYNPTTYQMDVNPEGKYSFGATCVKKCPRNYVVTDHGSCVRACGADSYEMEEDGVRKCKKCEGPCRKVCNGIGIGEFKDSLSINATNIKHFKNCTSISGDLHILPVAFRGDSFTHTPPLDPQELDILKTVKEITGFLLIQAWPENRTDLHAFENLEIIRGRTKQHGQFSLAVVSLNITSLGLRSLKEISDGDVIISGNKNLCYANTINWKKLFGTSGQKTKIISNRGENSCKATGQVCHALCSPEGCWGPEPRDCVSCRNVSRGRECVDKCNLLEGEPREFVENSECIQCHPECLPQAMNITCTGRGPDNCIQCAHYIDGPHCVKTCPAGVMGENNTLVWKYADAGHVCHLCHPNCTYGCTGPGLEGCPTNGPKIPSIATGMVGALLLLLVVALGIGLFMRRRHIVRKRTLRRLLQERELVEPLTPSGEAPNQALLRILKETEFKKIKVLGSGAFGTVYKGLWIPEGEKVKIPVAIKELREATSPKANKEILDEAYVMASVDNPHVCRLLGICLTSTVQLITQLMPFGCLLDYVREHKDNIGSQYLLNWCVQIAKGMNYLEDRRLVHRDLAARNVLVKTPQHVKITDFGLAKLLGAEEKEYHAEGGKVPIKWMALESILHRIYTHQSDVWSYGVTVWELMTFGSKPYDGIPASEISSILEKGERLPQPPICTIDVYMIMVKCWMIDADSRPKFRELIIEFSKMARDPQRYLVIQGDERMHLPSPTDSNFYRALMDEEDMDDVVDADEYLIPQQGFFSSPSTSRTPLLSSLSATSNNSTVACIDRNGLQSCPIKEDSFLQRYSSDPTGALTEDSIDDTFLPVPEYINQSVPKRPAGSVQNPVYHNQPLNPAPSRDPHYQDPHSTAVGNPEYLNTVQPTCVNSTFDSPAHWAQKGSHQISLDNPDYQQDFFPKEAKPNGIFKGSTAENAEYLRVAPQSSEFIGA
Summary of the method: (§1)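 Engineered NIH/3T3 cells were plated overnight, then exposed to a 12-point 1:3 compound series (from a 10 μM stock) for 3 hours at 37 °C. WT-expressing cells alone were stimulated with 50 ng/ml EGF for 5 minutes before lysis. IC50s came from non-linear fits of AlphaLISA signal.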

[2] = target: human EGFR L858R (NIH/3T3 cells) (Homo sapiens, UniProt P00533, L858R); test: EGFR target modulation in engineered NIH/3T3 cell lines (phospho-EGFR Y1068 AlphaLISA), EGFR L858R; assay type: cell-based; conditions: engineered NIH/3T3 cells, read-out: NIH3T3 IC50 (μM) EGFR (L858R)
Summary of the method: as §1

[3] = target: human EGFR L858R/T790M (NIH/3T3 cells) (Homo sapiens, UniProt P00533, L858R/T790M); test: EGFR target modulation in engineered NIH/3T3 cell lines (phospho-EGFR Y1068 AlphaLISA), EGFR L858R/T790M; assay type: cell-based; conditions: engineered NIH/3T3 cells, read-out: NIH3T3 IC50 (μM) EGFR (L858R/T790M)
Summary of the method: as §1

H1975 (EGFR L858/T790M) = H1975 (EGFR L858/T790M) (Homo sapiens, UniProt P00533, L858R/T790M); test: EGFR target modulation in H1975 cell line (phospho-EGFR Y1173 ELISA); assay type: cell-based
Protocol: (§2) EGFR Target Modulation in H1975, H3255 and HCC827 Cell Lines Tissue Culture. Cells were maintained in 10% FBS/RPMI supplemented with 100 μg/ml Penicillin/Streptomycin (Hyclone #SH30236.01). […] The cells were allowed to incubate overnight in a 37° C., 5% CO2 humidified tissue culture incubator. […] The serial diluted compounds were transferred to the plate containing cells by using a 50 nl Pin Head device (Perkin Elmer) and the cells were placed back in the incubator for 3 hours. Phospho-EGFR ([…]) Target Modulation Assay. The media was reduced to 20 ul using a Bio-Tek ELx 405 SelectTM plate washer. […] The plates were shaken at 4° C. for 20 minutes. An aliquot of 25 ul from each well was transferred to pEGFR(Y1173) ELISA plates for analysis. Phospho-EGFR ([…]) ELISA. Solid white high-binding ELISA plates (Greiner #781074) were coated with 5 ug/ml anti-EGFR capture antibody (R&D Systems #AF231) overnight in 50 mM carbonate/bicarbonate pH 9.5 buffer. Plates were blocked with 1% BSA (Sigma #A7030) in PBS for 1 hour at room temperature. Wash steps were carried out with a Bio-Tek ELx405 SelectTM using 4 cycles of 100 ul TBS-T (20 mM Tris, 137 mM NaCl, 0.05% Tween-20) per well. […] Lysis was allowed to occur for 20 minutes on ice. A 25 ul aliquot was added to each well of the blocked ELISA plate and incubated overnight at 4° C. with gentle shaking. […] After washing, 1:2,000 anti-rabbit-HRP (Cell Signaling #7074) in 0.2% BSA/TBS-T was added and incubated for 1 hour at room temperature. Chemiluminescent detection was carried out with SuperSignal ELISA Pico substrate (ThermoScientific #37069). Signal was read on EnVision plate reader using built-in UltraLUM setting. Data Analysis. Control cells treated with EGF were set to 100% maximum response. […] With these parameters, the IC50's for each compound in each cell line was calculated using non-linear curve fitting analysis.

H3255 (EGFR L858R) = H3255 (EGFR L858R) (Homo sapiens, UniProt P00533, L858R); test: EGFR target modulation in H3255 cell line (phospho-EGFR Y1173 ELISA); assay type: cell-based
Sequence of H3255 (EGFR L858R) (P00533 25-1210 L858R): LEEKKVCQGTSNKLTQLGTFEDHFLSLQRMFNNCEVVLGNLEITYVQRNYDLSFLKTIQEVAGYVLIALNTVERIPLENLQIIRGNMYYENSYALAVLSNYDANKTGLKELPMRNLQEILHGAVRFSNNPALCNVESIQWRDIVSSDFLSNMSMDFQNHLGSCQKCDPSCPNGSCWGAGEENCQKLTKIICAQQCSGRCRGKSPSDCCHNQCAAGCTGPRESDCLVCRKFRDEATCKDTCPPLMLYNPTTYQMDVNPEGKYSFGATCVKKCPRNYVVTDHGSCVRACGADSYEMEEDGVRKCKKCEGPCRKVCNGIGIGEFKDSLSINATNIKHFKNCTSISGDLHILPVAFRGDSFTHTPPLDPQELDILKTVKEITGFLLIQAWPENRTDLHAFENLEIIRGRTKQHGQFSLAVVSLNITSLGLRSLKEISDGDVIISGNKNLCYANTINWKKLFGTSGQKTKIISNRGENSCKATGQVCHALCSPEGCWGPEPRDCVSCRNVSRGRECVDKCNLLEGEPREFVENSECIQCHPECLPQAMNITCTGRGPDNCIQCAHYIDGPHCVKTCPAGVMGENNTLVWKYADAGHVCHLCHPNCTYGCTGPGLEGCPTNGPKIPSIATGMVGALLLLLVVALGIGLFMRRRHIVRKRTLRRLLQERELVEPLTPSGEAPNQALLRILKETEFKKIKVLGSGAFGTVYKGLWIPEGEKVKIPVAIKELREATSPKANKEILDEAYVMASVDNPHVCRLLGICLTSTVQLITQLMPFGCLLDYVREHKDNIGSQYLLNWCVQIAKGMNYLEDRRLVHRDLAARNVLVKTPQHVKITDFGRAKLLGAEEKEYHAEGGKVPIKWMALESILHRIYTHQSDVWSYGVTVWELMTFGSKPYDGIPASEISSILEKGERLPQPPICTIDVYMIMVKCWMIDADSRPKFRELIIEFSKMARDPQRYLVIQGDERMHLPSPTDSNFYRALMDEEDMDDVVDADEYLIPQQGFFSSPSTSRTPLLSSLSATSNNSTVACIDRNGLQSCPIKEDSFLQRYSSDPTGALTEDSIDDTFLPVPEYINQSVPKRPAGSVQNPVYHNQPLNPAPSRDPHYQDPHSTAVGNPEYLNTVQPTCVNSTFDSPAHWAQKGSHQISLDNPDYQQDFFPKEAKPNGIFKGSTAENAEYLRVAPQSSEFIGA
Protocol: as §2

HEKn (EGFR WT) = HEKn (EGFR WT) (Homo sapiens, UniProt P00533); test: EGFR target modulation in HEKn (EGFR-WT) cell line (phospho-EGFR Y1173 ELISA); assay type: cell-based; conditions: value outside parentheses
Sequence of HEKn (EGFR WT) (P00533 25-1210): as the sequence (P00533 25-1210) above
Protocol: EGFR Target Modulation in HEKn (EGFR-WT) Cell Line Tissue Culture. Human neonatal epithelial keratinocytes (Invitrogen #C-001-5C) were maintained in EpiLife media (Invitrogen #[…]) supplemented with growth factors (Invitrogen #S-001-5). Cells were harvested with 0.05% Trypsin/EDTA (Hyclone #SH30236.01) and quenched with 5% FBS/EpiLife media. […] The serial diluted compounds were transferred to the plate containing cells by using a 50 nl Pin Head device (Perkin Elmer) and the cells were placed back in the incubator for 3 hours. […] Phospho-EGFR (Y1173) ELISA. Solid white high-binding ELISA plates (Greiner #781074) were coated with 5 ug/ml anti-EGFR capture antibody (R&D Systems #AF231) overnight in 50 mM carbonate/bicarbonate pH 9.5 buffer. […] Wash steps were carried out with a Bio-Tek ELx405 SelectTM using 4 cycles of 100 ul TBS-T (20 mM Tris, 137 mM NaCl, 0.05% Tween-20) per well. […] Lysis was allowed to occur for 20 minutes on ice. A 25 ul aliquot was added to each well of the blocked ELISA plate and incubated overnight at 4° C. with gentle shaking. […] After washing, 1:2,000 anti-rabbit-HRP (Cell Signaling #7074) in 0.2% BSA/TBS-T was added and incubated for 1 hour at room temperature. Chemiluminescent detection was carried out with SuperSignal ELISA Pico substrate (ThermoScientific #37069). Signal was read on EnVision plate reader using built-in UltraLUM setting. Data Analysis. Control cells treated with EGF were set to 100% maximum response. […] With these parameters, the IC50's for each compound in each cell line was calculated using non-linear curve fitting analysis.

[4] = EGFR (L858R/T790M) with 90 min pre-incubation, read-out: IC50 (μM) Column B
[5] = EGFR (L858R/T790M) with no pre-incubation, read-out: IC50 (μM) Column A

T1 sequence (P00533 669-1210 T790M/L858R): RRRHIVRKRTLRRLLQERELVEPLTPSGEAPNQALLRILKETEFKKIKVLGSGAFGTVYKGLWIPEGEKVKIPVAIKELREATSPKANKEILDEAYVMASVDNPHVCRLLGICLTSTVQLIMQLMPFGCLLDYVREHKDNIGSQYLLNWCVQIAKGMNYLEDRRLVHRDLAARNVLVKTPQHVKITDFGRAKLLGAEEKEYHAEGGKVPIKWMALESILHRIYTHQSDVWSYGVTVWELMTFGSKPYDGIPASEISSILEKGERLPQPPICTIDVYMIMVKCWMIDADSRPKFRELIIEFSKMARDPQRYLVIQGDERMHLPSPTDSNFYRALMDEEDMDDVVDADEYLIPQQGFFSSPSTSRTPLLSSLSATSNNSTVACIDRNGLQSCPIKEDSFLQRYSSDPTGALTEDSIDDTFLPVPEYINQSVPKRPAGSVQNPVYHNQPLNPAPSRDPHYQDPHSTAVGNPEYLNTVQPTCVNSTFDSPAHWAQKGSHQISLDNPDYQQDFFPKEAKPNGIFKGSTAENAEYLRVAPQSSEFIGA

IC50 (EGFR(L858R/T790M); [4])	IC50 (EGFR(L858R/T790M); [5])	IC50 [1]	IC50 [2]	IC50 [3]	pIC50 (H1975 (EGFR L858/T790M))	pIC50 (H3255 (EGFR L858R))	pIC50 (HEKn (EGFR WT))	Compound
< 0.001 µM	0.002 µM	0.026 µM	0.002 µM	0.002 µM	8.52	8.52	6.90	Cc1cccc2nc(NC(=O)c3ccnnc3)n([C@@H]3CCCCN(C(=O)/C=C/CN(C)C)C3)c12 [Example 17-95]
< 0.001 µM	0.004 µM	0.063 µM	0.004 µM	0.001 µM	8.52	7.92	6.66	Cc1cc(C(=O)Nc2nc3cccc(C)c3n2[C@@H]2CCCCN(C(=O)/C=C/CN(C)C)C2)cc(C)n1 [Example 17-72]
0.005 µM	0.062 µM	1.65 µM	0.032 µM	0.042 µM	6.89	6.87	< 5.00	Cc1cccc2nc(NC(=O)c3ccncn3)n(C3CCCCN(C(=O)/C=C/CN(C)C)C3)c12 (centres unmarked) [Example 17-37]
< 0.001 µM	0.009 µM	0.052 µM	0.002 µM	0.003 µM	7.77	8.40	6.73	Cc1ccc(C(=O)Nc2nc3cccc(C)c3n2C2CCCCN(C(=O)/C=C/CN(C)C)C2)cn1 (centres unmarked) [Example 17-47]
< 0.001 µM	0.001 µM	0.143 µM	0.002 µM	< 0.001 µM	> 9.00	8.40	7.00	C=CC(=O)N1CCCC[C@@H](n2c(NC(=O)c3ccccc3)nc3cccc(CN4CCC(O)C4)c32)C1 (some centres unmarked) [Example 17-114]
< 0.001 µM	0.02 µM	0.82 µM	0.028 µM	0.017 µM	7.03	6.54	5.58	Cc1cccc2nc(NC(=O)c3cc(F)ccc3F)n(C3CCCCN(C(=O)/C=C/CN(C)C)C3)c12 (centres unmarked) [Example 17-29]
< 0.001 µM	0.012 µM	0.204 µM	0.017 µM	0.006 µM	8.22	7.66	6.59	C=CC(=O)N1CCCC[C@@H](n2c(NC(=O)c3ccnnc3)nc3cccc(Cl)c32)C1 [Example 17-15]
< 0.001 µM	0.005 µM	0.139 µM	0.003 µM	0.005 µM	8.30	7.82	6.72	Cc1cccc2nc(NC(=O)c3ccc(F)cc3)n(C3CCCCN(C(=O)/C=C/CN(C)C)C3)c12 (centres unmarked) [Example 17-26]
0.002 µM	0.021 µM	0.67 µM	0.012 µM	0.005 µM	7.92	7.06	6.00	Cc1cccc2nc(NC(=O)c3cccc(F)c3F)n(C3CCCCN(C(=O)/C=C/CN(C)C)C3)c12 (centres unmarked) [Example 17-27]
< 0.001 µM	0.014 µM	0.283 µM	0.004 µM	0.01 µM	7.62	7.09	6.43	Cc1cccc2nc(NC(=O)c3ccc(F)cc3F)n(C3CCCCN(C(=O)/C=C/CN(C)C)C3)c12 (centres unmarked) [Example 17-28]
< 0.001 µM	< 0.001 µM	0.013 µM	< 0.001 µM	< 0.001 µM	8.70	> 9.00	7.43	Cc1cccc2nc(NC(=O)c3ccnnc3)n([C@@H]3CCCCN(C(=O)C#CCN(C)C)C3)c12 [Example 17-87]
< 0.001 µM	0.002 µM	0.067 µM	0.003 µM	0.002 µM	8.70	8.40	6.79	C=CC(=O)N1CCCC[C@@H](n2c(NC(=O)c3cnnc(C)c3)nc3cccc(C)c32)C1 [Example 17-81]
0.011 µM	0.133 µM	1.13 µM	0.05 µM	0.123 µM	6.73	6.70	< 5.00	Cc1cc(C(=O)Nc2nc3cccc(Cl)c3n2[C@@H]2CCCCN(C(=O)/C=C/CN3CCC3)C2)ccn1 [Example 3-12]
< 0.001 µM	0.006 µM	0.239 µM	0.004 µM	0.002 µM	9.00	7.89	6.55	C=CC(=O)N1CCCC[C@@H](n2c(NC(=O)c3cccc(C(F)(F)F)c3)nc3cccc(C)c32)C1 (single isomer, unassigned) [Example 21-4]
< 0.001 µM	0.002 µM	0.058 µM	0.003 µM	0.002 µM	8.70	8.40	6.58	Cc1cccc2nc(NC(=O)c3cccc(-n4cnnn4)c3)n(C3CCCCN(C(=O)/C=C/CN(C)C)C3)c12 (centres unmarked) [Example 17-53]
< 0.001 µM	0.002 µM	0.103 µM	0.003 µM	< 0.001 µM	8.70	8.30	6.49	Cc1cccc2nc(NC(=O)c3cccc(S(C)(=O)=O)c3)n(C3CCCCN(C(=O)/C=C/CN(C)C)C3)c12 (centres unmarked) [Example 17-52]
< 0.001 µM	0.025 µM	0.88 µM	0.032 µM	0.028 µM	7.85	7.37	5.77	C=CC(=O)N1CCC[C@@H](n2c(NC(=O)c3ccnc(C)c3)nc3cccc(C)c32)C1 [Example 17-109]
< 0.001 µM	< 0.001 µM	0.004 µM	< 0.001 µM	< 0.001 µM	> 9.00	9.00	7.85	Cc1cccc2nc(NC(=O)c3ccnc(-c4ccccc4)c3)n([C@@H]3CCCCN(C(=O)/C=C/CN(C)C)C3)c12 [Example 17-76]
< 0.001 µM	0.008 µM	0.281 µM	0.006 µM	0.009 µM	8.10	8.05	6.57	C=CC(=O)N1CCCC[C@@H](n2c(NC(=O)c3cnnc(C)c3)nc3cc(CN4CCCC4)cc(C)c32)C1 [Example 17-161]
